{
  "source": "patent US9823232B2",
  "about": "“Ligand for detection of chromium (III) and a process for the preparation thereof” (COUNCIL OF SCIENTIFIC & INDUSTRIAL RESEARCH, priority 2013, dated 2017)",
  "key": {"[1]": {"assay": "Relative fluorescence quantum yield w.r.t. Rhodamine B", "format": "physicochemical", "settings": "with Cr^3+", "experimental": "(§1) A stock solution of the receptor L1 (6.9×10^−4 M) was prepared in acetonitrile medium and 57 μL of this stock solution was added to 2.5 ml of 0.4 mM TX100 in Tris-HCL aqueous buffer medium having solution pH 7.2 to make the effective ligand concentration of 1.59×10^−5 M. The solution was used for all the photophysical studies. Cr^3+ stock solution (4.75×10^−3 M) was prepared in pure aqueous medium and was used for all studies. Emission titrations were also performed as a function of [TX100](0.1 mM, 0.23 mM, 0.32 mM, 0.4 mM, 0.6 mM) in Tris-HCl buffer medium of pH 7.2 by monitoring the increase in emission intensity (using λExt=530 nm, λMon=583 nm and slit width 2/2 nm) on binding of L1 to Cr^3+ for optimizing the maximum enhancement of the emission intensity. The relative fluorescence quantum yields (t) were estimated using equation 1 for different concentration of TX100 (0.1 mM, 0.23 mM, 0.32 mM, 0.4 mM, 0.6 mM) in Tris-HCl buffer medium (having solution pH of 7.2) and by using the Rhodamine B (φf=0.3 in aqueous medium at RT) as a reference. φf=φf′(Isample/Istd)(Astd/Asample)(η^2sample/η^2std) Eq. 1 where, φf′ was the absolute quantum yield for the rhodamine B and was used as reference; Isample and Istd are the integrated emission intensities; Asample and Astd are the absorbances at the excitation wavelength, and ηsample and ηstd are the respective refractive indices."}, "[2]": {"assay": "Emission (fluorescence) spectral titration with B-H plot in aqueous Triton X 100 / Tris buffer pH 7.2", "format": "binding", "experimental": "(§2) The association constant (Kabs) of 2.4×10^3 M^−1 for the L1-Cr^3+ formation is evaluated from the absorption titration and B-H plot data (FIG. 3). A good linear fit data supported the 1:1 binding stoichiometry. For emission titration, a significant increase in emission intensity at 583 nm is observed with an increase in concentration of Cr^3+ in aqueous medium. […] The 1:1 binding stoichiometry is further confirmed from Jobs plot and presence of signal for m/z at 616.87 (Calc 616.75) in FAB-MS analysis of a mixture of L1 (1.59×10^-5 M) and (9.5×10^−5 M) Cr(ClO4)3 for [L1+Cr^3+].\nas §1, with “indices. Computational Methodology:” for “indices.”\n(§3) Formation of Cr^3+.L1 was also confirmed from the result “Formation of Cr3+.L1 was also confirmed from the result of FAB MS study. Signal at m/z value of 616.87 (Calc 616.75) for Cr3+.L1”.\n3.28×10^−3 M Cr(III) solution in water is prepared and then it is gradually added to a solution of the ligand L1, where effective ligand concentration is 1.59×10^−5 M in a Tris buffer with solution pH of 7.2 having 0.32 mM Triton X 100. Uv-vis and luminescence spectra are recorded in absence and presence of [Cr(III)]. In emission spectra a 200 fold increase in spectral intensity at 583 nm (λext=530 nm and slit 2/2) is observed, while a simultaneous change in solution colour is observed from colourless to pink red (please refer to FIGS. 4 and 6)."}, "[3]": {"assay": "Selectivity towards various metal ions by absorption and emission spectra", "experimental": "To check the selectivity of Receptor L1 towards various metal ions like Li^+, Na^+, K^+, Cs^+, Mg^2+, Ca^2+, Ba^2+, Sr^2+, Zn^2+, Co^3+, Cu^2+, Ni^2+, Fe^2+, Pb^2+, Hg^2+ change in electronic as well as emission spectra were examined in 0.32 mM Triton X 100 in tris (5 mM, 25 mM NaCl) buffer medium at PH 7.2.\nHowever only in presence of Cr^3+, a strong absorption band at 562 nm and intense emission band at 583 nm (for λext=530 nm) are observed. These changes are also associated with simultaneous visually detectable change in solution colour from colourless to pink red.\nA solution of the perchlorate salts of the respective ion (Li^+, Na^+, K^+, Cs^+, Ca^2+, Mg^2+, Ba^2+, Sr^2+, Fe^2+, Ni^2+, Co^2+, Cu^2+, Mn^2+, Cd^2+, Pb^2+, Ba^2+, Zn^2+, Sr^2+, Hg^2+ and Cr^3+) and nitrate salts of lanthanides ions (Tb^3+, Ho^3+, Ce^3+, Sm^3+, Rb^+, Pr^3+, Eu^3+, Gd^3+, Nd^3+, Dy^3+, Tm^3+, Er^3+, Yb^3+) in pure aqueous medium were used for all studies. The effective final concentrations of all metal salts were maintained at 1.62×10^−4 M.\nA stock solution of the receptor L1 (6.9×10^−4 M) was prepared in acetonitrile medium and 57 μL of this stock solution was added to 2.5 ml of 0.4 mM TX100 in Tris-HCL aqueous buffer medium having solution pH 7.2 to make the effective ligand concentration of 1.59×10^−5 M. The solution was used for all the photophysical studies. […]"}, "[4]": {"assay": "Absorption (UV-Vis) spectral titration with B-H plot in aqueous Triton X 100 / Tris buffer pH 7.2", "format": "binding", "experimental": "as §2\nas §1, with “indices. Computational Methodology:” for “indices.”\nas §3"}, "[5]": {"assay": "Isothermal Titration Calorimetry (ITC) in acetonitrile at 25° C.", "format": "binding", "experimental": "FIG. 10 depicts Isothermal Titration Calorimetry (ITC) titration profile for the binding of Cr^3+ to receptor L1 at 25° C. in acetonitrile; Top plot: raw data for the sequential 2 μl injection of Cr^3+ (1.2×10^−3 M) into solution of L1 (2.0×10^−4 M) and bottom plot of the heat evolved (kcal per mole) of Cr^3+ added.\n5.0 mM Tris-HCl aq. buffer solution was used for maintaining solution pH, unless mentioned otherwise. ESI-MS measurements were performed using a Micromass QTof-Micro instrument. FT-IR spectra were recorded as KBr pellets using a Perkin Elmer Spectra GX 2000 spectrometer. ^1H and ^13C NMR spectra were recorded on Bruker 500 MHz FT NMR (model: Avance-DPX 500). Electronic spectra were recorded with a Varian Cary 500 Scan UV-Vis-NIR Spectrophotometer, Isothermal Titration Calorimetry studies were performed in Microcal iTC200, while emission spectra were recorded using either Edinburgh Instrument Xe-900 Spectrofluorometer or PTI. For all spectroscopic studies in aqueous buffer medium as well as for studies with plant/algal cells, L1 self-assembled inside the miceller structure of TX100 was used, unless mentioned otherwise.\n(§4) To envisage the adverse role of high solvation enthalpy of Cr(III) in aqueous medium, similar Uv-vis and emission titrations were carried out in acetonitrile medium using ([Cr(III)]=(0-1.93×10^−4)M; and [L1]=(1.59×10^−5 M) in CH3CN) and the evaluated formation constant for Cr^3+.L1 in acetonitrile was (Ka^Abs=(1.1±0.03)·10^6 M^−1, Ka^Ems=(1.0±0.02)·10^6 M^−1 using λExt: 530 nm and λMon: 583 nm for emission titration). The binding affinity of L1 towards Cr^3+ was evaluated as Ka^ITC=(1.6±0.02)·10^6 M^−1 in acetonitrile medium at 25° C. using ITC experiments. […] Thermodynamic parameters were obtained from ITC studies (ΔG (−(8.48±0.02) kcal mol^−1), ΔH ((−20.8±0.4) kcal mol^−1) and ΔS (−41.4±0.05) cal mol^−1) (all symbols are used according to standard terminology)."}, "[6]": {"assay": "Uv-vis and emission titrations in acetonitrile medium", "format": "binding", "experimental": "as §4"}, "[7]": {"settings": "predominantly organic medium; cited from earlier work"}, "[8]": {"settings": "aqueous medium at RT; cited from earlier work"}, "[9]": {"settings": "[Triton X 100] 0.23 mM, aqueous medium"}, "[10]": {"settings": "[Triton X 100] 0.32 mM, Tris buffer pH 7.2"}},
  "note": "“Also recorded” adds a separate entry of the source.",
  "data": [
    {"smiles": "C=CCN(CC=C)CCN1C(=O)c2ccccc2C12c1ccc(N(CC)CC)cc1Oc1cc(N(CC)CC)ccc12", "note": "[Ligand L1]", "values": [
      {"measurement": "Quantum yield in water w.r.t. Rhodamine B", "setting": "[1]; [Triton X 100] 0.23 mM", "result": 0.185},
      {"measurement": "Quantum yield in water w.r.t. Rhodamine B", "setting": "[1]; [Triton X 100] 0.32 mM", "result": 0.211},
      {"measurement": "Quantum yield in water w.r.t. Rhodamine B", "setting": "[1]; [Triton X 100] 0.4 mM", "result": 0.22},
      {"measurement": "Increase in emission spectral intensity at 583 nm on adding Cr(III)", "setting": "[2]; L1 1.59×10^−5 M, 0.32 mM Triton X 100, Tris pH 7.2, λext 530 nm", "result": 200, "unit": "fold"},
      {"measurement": "Binding Constant, Fluorescence Spectroscopic Method", "setting": "[2]; [9]", "result": 2000, "unit": "M⁻¹"},
      {"measurement": "Binding Constant, Fluorescence Spectroscopic Method", "setting": "[2]; [10]", "result": 2830, "unit": "M⁻¹"},
      {"measurement": "Binding Constant, Fluorescence Spectroscopic Method", "setting": "[2]; [Triton X 100] 0.4 mM, Tris pH 7.2", "result": 3250, "unit": "M⁻¹"},
      {"measurement": "Ka^Ems, binding constant for formation of Cr^3+.L1", "setting": "[2]; aq. buffer medium pH 7.2, emission titration, B-H plot", "result": "(3.3±0.2)·10^3 M^−1"},
      {"measurement": "Selectivity for Cr(III) over other metal ions (absorption 562 nm, emission 583 nm, colour)", "setting": "[3]; Triton X 100 in Tris buffer pH 7.2, alkali, alkaline earth and transition metal ions", "result": "selective/specific for Cr (III); also recorded: no such changes are observed"},
      {"measurement": "Interference of Cr(VI)", "setting": "[3]; pure aqueous medium", "result": "does not have any interferences of Cr(VI) at all"},
      {"measurement": "Binding Constant, Uv-Vis Spectroscopic Method", "setting": "[4]; [9]", "result": 1960, "unit": "M⁻¹"},
      {"measurement": "Binding Constant, Uv-Vis Spectroscopic Method", "setting": "[4]; [10]", "result": 2400, "unit": "M⁻¹"},
      {"measurement": "Binding Constant, Uv-Vis Spectroscopic Method", "setting": "[4]; [Triton X 100] 0.4 mM, aqueous medium", "result": 3200, "unit": "M⁻¹"},
      {"measurement": "Ka^Abs, binding constant for formation of Cr^3+.L1", "setting": "[4]; aq. buffer medium pH 7.2, absorption titration, B-H plot", "result": "3.2±0.2)·10^3 M^−1"},
      {"measurement": "Ka^ITC, binding affinity towards Cr^3+", "setting": "[5]", "result": "(1.6±0.02)·10^6 M^−1"},
      {"measurement": "ΔH of binding", "setting": "[5]; ITC", "result": "-20.8 ± 0.4", "unit": "kcal/mol"},
      {"measurement": "ΔS of binding", "setting": "[5]; ITC", "result": "-41.4 ± 0.05 cal/(mol·K)"},
      {"measurement": "Ka^Abs, formation constant for Cr^3+.L1", "setting": "[6]", "result": "(1.1±0.03)·10^6 M^−1"},
      {"measurement": "Ka^Ems, formation constant for Cr^3+.L1", "setting": "[6]; λExt 530 nm, λMon 583 nm", "result": "(1.0±0.02)·10^6 M^−1"}
    ]},
    {"smiles": "O=c1ccc2cc(/N=C/c3c4ccccc4cc4ccccc34)ccc2o1", "note": "[Receptors 3]", "values": [
      {"measurement": "Selectivity towards Cr(III)", "setting": "[7]", "result": "high selectivity towards Cr(III)"}
    ]},
    {"smiles": "CCN(CC)c1ccc2c(-c3ccccc3C(=O)O)c3ccc(=[N+](CC)CC)cc-3oc2c1.[Cl-]", "note": "[Rhodamine B]", "values": [
      {"measurement": "Fluorescence quantum yield φf (reference)", "setting": "[8]", "result": 0.3}
    ]}
  ]
}
